From PMC8224038, “Anti-Leukemic Properties of Aplysinopsin Derivative EE-84 Alone and Combined to BH3 Mimetic A-1210477” (Marine Drugs, 2021)
Read-outs that look alike come from different tables or passages of the source.

Experiments:
RPMI 1788 [1] = assay: Trypan blue exclusion test, proliferation (GI50) in noncancerous cells; assay type: cell-based, human; settings: Homo sapiens
Experimental: (§1) Cell proliferation and viability were assessed by the trypan blue exclusion method (Lonza), and viable cells were counted using a hematocytometer (Marienfeld, Lauda-Königshofen, Germany). Differential toxicity was calculated by comparing the viability of RPMI 1788 cells to the viability of cancer cells (normal/cancer cells). The difference in viability was expressed in terms of fold change.

PBMCs = assay: Toxicity test in nonproliferating and proliferating PBMCs (trypan blue); assay type: cell-based, human; settings: 24, 48, 72 h
Experimental: Peripheral blood mononuclear cells (PBMCs) were isolated by density gradient centrifugation using Ficoll-Hypaque (GE Healthcare, Roosendaal, The Netherlands) from freshly collected buffy coats as previously described, obtained from healthy adult human volunteers (Red Cross, Luxembourg City, Luxembourg) after ethical approval as well as written informed consent from each volunteer. After isolation, cells were incubated overnight at 2 × 10^6 cells/mL in RPMI 1640 (supplemented with 1% antibiotic–antimycotic and 10% FCS (BioWhittaker, Verviers, Belgium) at 37 °C and 5% CO2 in a humidified atmosphere. The day after, cell concentration was adjusted at 1 × 10^6 cells/mL using the same fresh complete medium and then treated as indicated.
as §1

K562 [2] = assay: Seahorse XFp Cell Mito Stress test (OCR); assay type: cell-based, human; settings: K562, EE-84 30 µM, 72 h, vs control
Experimental: (§2) The oxygen consumption rate (OCR) was measured using a Seahorse XFp Cell Mito Stress Assay (#103010-100, Agilent Technologies, Seoul, Korea) ran on a Seahorse XFp analyzer (Agilent Technologies, Seoul, Korea) according to the manufacturer’s instructions. […] Before measurements, plates were equilibrated in a CO2-free incubator at 37 °C for 1 h. The analysis was performed using 1.5 µM oligomycin, 0.5 µM carbonyl cyanide-4-(trifluoromethoxy)phenylhydrazone (FCCP), and 1 µM rotenone/antimycin A as indicated. Data were analyzed using the Seahorse XF Cell Mito Stress Test report generator software (Agilent). The extracellular acidification rate (ECAR) was measured in response to the sequential injection of 10 mM glucose, 2 µM oligomycin (H+-ATP-synthase inhibitor), and 50 mM 2-deoxy-d-glucose (2DG) (hexokinase inhibitor) to detect non-glycolytic acidification, glycolysis, maximal glycolytic capacity, and glycolytic reserve using a Seahorse XFp analyzer with a Glycolysis Stress Test kit (Agilent, Santa Clara, CA, USA).

K562IR cells [3] = assay: Trypan blue exclusion test, viability; assay type: cell-based; settings: Homo sapiens, 24 h
Experimental: as §1

K562IR cells [4] = assay: Seahorse XFp Glycolysis Stress test (ECAR); assay type: cell-based, human; settings: EE-84 100 μM, 72 h
Experimental: as §2

K562 [5] = assay: Seahorse XFp Glycolysis Stress test (ECAR); assay type: cell-based, human; settings: K562, EE-84 50 μM, 72 h, vs control
Experimental: as §2

K562 cells [6] = assay: Trypan blue exclusion test, viability; assay type: cell-based, human; settings: Homo sapiens
Experimental: as §1

RPMI 1788 [7] = assay: Trypan blue exclusion test, viability (IC50) in noncancerous cells; assay type: cell-based, human; settings: for IC50: Homo sapiens, read-out: IC50 (50% cell death)
Experimental: as §1

K562 cells [8] = assay: Hoechst/PI staining by fluorescent microscopy; assay type: cell-based, human; settings: K562, 50 μM, 72 h
From the text: (§3) The percentage of apoptotic cells was quantified as the fraction of cells showing fragmented nuclei, as assessed by fluorescence microscopy (Nikon, Tokyo, Japan) after staining with Hoechst 33342 (Sigma-Aldrich) and propidium iodide (Sigma-Aldrich). In addition, apoptosis was confirmed by Annexin V APC (Biolegend, 640919)/propidium iodide (BD Biosciences, 556547) staining and fluorescence-activated cell sorter (FACS) analysis according to the manufacturer protocol (BD Biosciences, 556547).

zebrafish embryos = assay: Zebrafish toxicity; settings: 24 h exposure
Experimental: For toxicity assays, embryos were treated with 0.003% phenylthiourea (PTU) 14 h before the assay to remove pigmentation. Then, 2 h before the assay, the embryo’s shell was eliminated and then treated for up to 24 h with aplysinopsin compounds at indicated concentrations in 24-well plates. Viability and abnormal development were assessed after 24 h of treatment under light microscopy (Carl Zeiss Stereomicroscope DV4, Seoul, Korea). Pictures were taken by fixing embryos onto a glass slide with 3% methylcellulose (Sigma-Aldrich).

MEG01 = assay: Trypan blue exclusion test, proliferation (GI50); assay type: cell-based; settings: Homo sapiens, MEG-01
Experimental: as §1

KBM5IR = assay: Trypan blue exclusion test, proliferation (GI50); assay type: cell-based
Experimental: as §1

KBM5 = assay: Trypan blue exclusion test, proliferation (GI50); assay type: cell-based; settings: Homo sapiens
Experimental: as §1

K562IR = assay: Trypan blue exclusion test, proliferation (GI50); assay type: cell-based; settings: Homo sapiens
Experimental: as §1

K562 [9] = assay: Methocult colony formation assay; assay type: cell-based, human; settings: K562, 48-h pretreatment
Experimental: For 48 h pretreatment of EE-84 colony formation assays, approximately 3 × 10^5 cells were seeded in each well of a 24-well plate, treated with EE-84 at indicated concentrations, and incubated at 37 °C and 5% of CO2 in a humidified atmosphere for 48 h. After 48 h, 1000 cells were counted and grown in a semisolid methylcellulose medium (Methocult H4230, StemCell Technologies Inc., Vancouver, BC, Canada) supplemented with 10% FBS. Colonies were detected after 10 days of culture by adding 1 mg/mL of 3-(4,5-dimethylthiazol-2-yl)-2,5-diphenyltetrazolium bromide (MTT) reagent (Sigma-Aldrich) and were analyzed by Image J 1.8.0 software (U.S. National Institute of Health, Bethesda, MD, USA).

K562 cells [10] = assay: Annexin V APC/PI staining quantified by FACS; assay type: cell-based, human
From the text: as §3

K562 cells [11] = assay: Trypan blue exclusion test, proliferation (GI50); assay type: cell-based, human; settings: Homo sapiens
Experimental: as §1

[12] = K562, 24 h, EE-84 30 μM, with z-VAD-fmk (50 μM)

SMILES: COc1ccc2c(c1)c(C(=O)C(=O)Nc1sc3c(c1C(C)=O)CC(C)CC3)cn2Cc1ccccc1 (stereo not shown) [EE-84, N-(3-Acetyl-4,5,6,7-Tetrahydro-5-Methylbenzo[b]Thiophen-2-yl)-2-(1-Benzyl-5-Methoxy-1H-Indol-3-yl)-2-Oxoacetamide]
- GI50 (RPMI 1788 [1]; RPMI 1788, 24 h): > 50 µM
- GI50 (RPMI 1788 [1]; RPMI 1788, 48 h): > 50 µM
- GI50 (RPMI 1788 [1]; RPMI 1788, 72 h): 40.1 ± 3.79 µM
- toxic effects in nonproliferating and proliferating PBMCs (PBMCs): did not induce toxic effects
- oxygen consumption rate (OCR) (K562 [2]): significantly decreased
- viability at 30 µM (K562IR cells [3]; EE-84 30 µM): 95.3 ± 0.6%
- viability at 50 µM (K562IR cells [3]; EE-84 50 µM): 97 ± 2.7%
- glycolytic capacity of ECAR (K562IR cells [4]): significantly decreased
- glycolysis and glycolytic capacity (ECAR) (K562 [5]): significantly decreased
- viability at 30 µM (K562 cells [6]; K562, EE-84 30 μM 48 h with Baf-A1 (40 nM) post-treatment for last 8 h, read-out: cell viability): 89%
- viability at 30 µM (K562 cells [6]; K562, EE-84 30 µM, 24 h, read-out: Viability (24 h)): 98 ± 1%
- viability at 30 µM (K562 cells [6]; K562, EE-84 30 μM, 48 h, alone, read-out: cell viability): 98.7%
- viability at 50 µM (K562 cells [6]; K562, EE-84 50 µM, 24 h): 96 ± 0.7%
- IC50 (RPMI 1788 [7]; RPMI 1788, 24 h): > 50 µM
- IC50 (RPMI 1788 [7]; RPMI 1788, 48 h): > 50 µM
- IC50 (RPMI 1788 [7]; RPMI 1788, 72 h): > 50 µM
- differential toxicity RPMI-1788/K562 cells (RPMI 1788 [7]; at 40 and 50 µM, viability normal/cancer cells): significant differential toxicity
- viability of RPMI 1788 cells (RPMI 1788 [7]; up to 50 µM, Figure S4B): did not significantly affect
- propidium iodide (PI)-positive cells without nuclear fragmentation (K562 cells [8]): 11.0 ± 4.23%
- heart rate of zebrafish (zebrafish embryos): moderate decrease
- growth (relative body length) of zebrafish (zebrafish embryos; concentrations up to 100 µM): did not affect
- survival rate of zebrafish (zebrafish embryos; concentrations up to 100 µM): did not affect
- morphological changes of zebrafish (zebrafish embryos; embryos 24 hpf, different concentrations): No significant morphological changes
- GI50 (MEG01; MEG01, 24 h): > 50 µM
- GI50 (MEG01; MEG01, 48 h): 48.4 ± 5.02 µM
- GI50 (MEG01; MEG01, 72 h): 28.9 ± 1.52 µM
- GI50 (KBM5IR; 24 h): > 100 µM
- GI50 (KBM5IR; 48 h): 32.8 ± 2.25 µM
- GI50 (KBM5IR; 72 h): 29.2 ± 2.05 µM
- GI50 (KBM5; KBM5, 24 h): > 50 µM
- GI50 (KBM5; KBM5, 48 h): 34 ± 1.89 µM
- GI50 (KBM5; KBM5, 72 h): 28.1 ± 1.68 µM
- GI50 (K562IR; 24 h): > 100 µM
- GI50 (K562IR; 48 h): 95.6 ± 16.6 µM
- GI50 (K562IR; 72 h): 55.1 ± 3.28 µM
- total surface area and average size of colonies (K562 [9]): reduced
- AnnV+/PI+ (%) (K562 cells [10]; K562, 24 h, EE-84 30 μM): 2.98 ± 0.23%
- AnnV+/PI− (%) (K562 cells [10]; K562, 24 h, EE-84 30 μM): 6.00 ± 1.43%
- Combined cell death (%) (K562 cells [10]; K562, 24 h, EE-84 30 μM): 8.98 ± 2.14%
- AnnV+/PI+ (%) (K562 cells [10]; [12]): 3.13 ± 0.21%
- AnnV+/PI− (%) (K562 cells [10]; [12]): 5.33 ± 1.35%
- Combined cell death (%) (K562 cells [10]; [12]): 8.46 ± 1.55%
- AnnV+/PI+ (%) (K562 cells [10]; K562, EE-84 10 μM (Figure 3B)): 2.50 ± 0.62%
- AnnV+/PI− (%) (K562 cells [10]; K562, EE-84 10 μM (Figure 3B)): 7.05 ± 1.46%
- Combined cell death (%) (K562 cells [10]; K562, EE-84 10 μM (Figure 3B)): 9.55 ± 3.22%
- AnnV+/PI+ (%) (K562 cells [10]; K562, EE-84 20 μM (Figure 3B)): 4.40 ± 0.94%
- AnnV+/PI− (%) (K562 cells [10]; K562, EE-84 20 μM (Figure 3B)): 5.60 ± 1.98%
- Combined cell death (%) (K562 cells [10]; K562, EE-84 20 μM (Figure 3B)): 10.00 ± 0.85%
- AnnV+/PI+ (%) (K562 cells [10]; K562, EE-84 30 μM (Figure 3B)): 7.51 ± 2.70%
- AnnV+/PI− (%) (K562 cells [10]; K562, EE-84 30 μM (Figure 3B)): 6.65 ± 2.29%
- Combined cell death (%) (K562 cells [10]; K562, EE-84 30 μM (Figure 3B)): 14.16 ± 0.61%
- AnnV+/PI+ (%) (K562 cells [10]; K562, EE-84 40 μM (Figure 3B)): 8.97 ± 1.03%
- AnnV+/PI− (%) (K562 cells [10]; K562, EE-84 40 μM (Figure 3B)): 7.71 ± 2.10%
- Combined cell death (%) (K562 cells [10]; K562, EE-84 40 μM (Figure 3B)): 16.68 ± 0.89%
- AnnV+/PI+ (%) (K562 cells [10]; K562, EE-84 50 μM (Figure 3B)): 8.25 ± 1.95%
- AnnV+/PI− (%) (K562 cells [10]; K562, EE-84 50 μM (Figure 3B)): 8.22 ± 3.12%
- GI50 (K562 cells [11]; K562, 48 h): 32.2 ± 3.91 µM
- GI50 (K562 cells [11]; K562, 72 h): 19.1 ± 0.8 µM
